No end group written: not given here.
Tests used:
[1] = LPS binding affinity (Kd) by Isothermal Titration Calorimeter (ITC); set-up: species or system E. coli K1; settings: stated in words relative to FP1 (wild type, WT)
Text: FP1 (ADK 44-54) is denoted by wild type (WT), and peptides in which a point mutation occurred at various sites in WT were manufactured (FP3, FP5, FP6, and FP9). To increase the interaction with LPS in a residue sequence of FP3, peptides were designed based on FP3- and LPS-binding models (FP12-NH2 and FP13-NH2), and peptides were designed by additionally introducing a non-natural amino acid and an amino acid isomer (allomeric D-type amino acid) (allD FP12-NH2, allD FP13-NH2, allD FP-13-9a, allD FP-13-9w, allD FP-13-9k, and allD FP13-NH2 (AcOH)). In addition, an N-terminus PEGylated peptide (PEG-alld FP13-NH2 (AcOH)) was additionally designed, synthesized, and provided by ANYGEN, Co. Ltd. The binding affinity between each of the provided peptides and lipopolysaccharide (LPS) was confirmed through measuring the binding affinity (Kd) using Isothermal Titration Calorimeter (ITC).
Specifically, a method of analyzing binding affinity (Kd) between a peptide and LPS is as follows.
Measurement was carried out using a Malvern MicroCal PEAQ-ITC cell instrument, and the following pretreatment was carried out to confirm interaction with LPS. The amount and morphology of a sample cell are 300 µL and coin-shaped, fixed-in-place, respectively; a syringe rotation rate was 1,200 rpm; and a temperature was 30 °C, 35 °C or 25 °C.
Before the experiment, LPS and the peptide were previously diluted with PBS, thereby preparing 2 mM LPS and 0.2 mM peptide. 300 µL of the peptide was added into cells in the ITC instrument, which had been washed, and 40 µL of LPS was put into a syringe. After measurement conditions for ITC (temperature, number of injections) were set, the syringe was inserted into the cell, and ITC measurement was started. When the measurement was completed, analysis is performed, and the Kd values of LPS and the peptide were calculated.

[2] = Calcein dye leakage from liposome mimicking red blood cell membrane; settings: for dye leakage: PC/CH (1:1, w/w) liposome mimicking a red blood cell membrane in a mammal, FIG. 3
Experimental: (§1) To study an action mechanism for FP12-NH2, FP13-NH2, allD FP12-NH2, and allD FP13-NH2 peptides, the disruption ability of the peptides against liposomes mimicking a bacterial cell membrane and a red blood cell membrane was measured.
(§2) EYPG is an abbreviation for egg yolk L-α-phosphatidyl-DL-glycerol, and EYPC is an abbreviation for egg yolk 1,2-diacyl-sn-glycero-3-phosphocholine. CH is an abbreviation for cholesterol. After dissolving the phospholipids composed according to the content of each component in chloroform, the chloroform was removed using a rotary evaporator, and lyophilization was performed overnight. Afterward, the dried lipid film was dissolved in a Tris-buffer solution, and calcein […]. After repeated freezing and thawing, the calcein-encapsulated liposome was manufactured using an extruder. Subsequently, after an excitation wavelength of a spectrofluorimeter (Shimadzu RF 5301 PC spectrofluorimeter, Japan) was set to 490 nm, and an emission wavelength was set to 520 nm, the peptide was administered to the liposome to measure relative dye leakage, provided that a 100% dye leakage was expressed as fluorescence intensity when 0.01% Triton-Xioo was added.
The upper graphs of FIG. 3 show the % dye leakage for an EYPC/EYPG (7:3, w/w) liposome mimicking bacterial cells, encapsulating a fluorescent dye, calcein, by a peptide according to a peptide concentration. […] The lower graphs of FIG. […]

S. aureus = settings: after treatment with proteolytic enzyme
red blood cells = assay: Red blood cell hemolytic activity; format: cell-based, human; settings: even at a low concentration; control peptide
Experimental: The following experiment was carried out to determine the toxicity of a peptide through measurement of the red blood cell hemolytic activity in a human.
The red blood cells in a human were diluted with PBS for washing, and centrifuged for 10 minutes, the washing process was repeated three times. The 8.0% red blood cell solution diluted with PBS was loaded into a 96-well microtiter plate by 100 µL and 100 µL of a peptide solution was mixed, the mixture was incubated at 37 °C for 1 hour, and then the 96-well microtiter plate was centrifuged for 5 minutes. A 100 µL of supernatant was taken and transferred to another 96-well microtiter plate, and then absorbance was measured at 405 nm. Here, a value obtained when treated with 0.1% Triton X-100 was calculated as 100% hemolysis, and the hemolytic activity of the peptide was calculated as % hemolysis by Equation 1 below. Cell disruption rate(%Hemolysis) = (A−C)/(B−C) × 100 [formula]
Here, A is the absorbance at 405 nm in a peptide solution, B is the absorbance at 405 nm in a 0.1% Triton X-100, and C is the absorbance at 405 nm in a PBS solution.

[3] = Calcein dye leakage from liposome mimicking gram-negative bacterial cell membrane; settings: PC/PG (7:3, w/w) liposome; even at a low concentration
Experimental: as §1
as §2, with “added. […]” for “added.”

[4] = In vivo toxicity (survival rate for 72 hours); set-up: species or system ICR mice; settings: ratio of a drug dose exhibiting toxicity to a drug dose for exhibiting a desired response
Experimental: To confirm the therapeutic and pharmaceutical effects of an acetate salt substitution of allD FP13-NH2, a septic animal model induced by intraperitoneally administering each of the Escherichia coli (standard strain and ESBL) strains or a normal mouse was treated with the peptide allD FP13-NH2 (AcOH). The antibiotic effect, the toxicity, and the inhibitory activity of […] cytokine IL-6 of the salt substitution with those of the same peptide at the end of trifluoroacetic acid (TFA) were compared.
An experimental method is as follows: Six-week-old female ICR mice (SPF mice, Samtako) with an average body weight of 25 g were used as experimental animals. The experimental animals were provided with sterile feed and water and bred with less than 10 mice per cage, and a day/night cycle was 12 hours.
To evaluate in vivo toxicity, the mice were divided into groups (n=5 or 6 per group) per experiment, and intraperitoneally treated six times with allD FP13-NH2 (TFA) and allD FP13-NH2 (AcOH) mixed with […]'S DEX solution (vehicle) at 0, 1, 2, 3, 4, or 5 hours, followed by observing a survival rate at intervals of 12 hours for 72 hours.

Compound | LPS binding affinity [1] | dye leakage [2] | also measured
KLRVKLRRALR [allD FP-13-9a] | strong LPS binding affinity, which is equal to or higher than that of FP1 | – | –
CC(C)C[C@@H](NC(=O)[C@H](N)CCCNC(=N)N)C(=O)N[C@H](CCCNC(=N)N)C(=O)N[C@@H](C(=O)N[C@H](CCCCN)C(=O)N[C@H](CC(C)C)C(=O)N[C@H](CCCNC(=N)N)C(=O)N[C@H](CCCNC(=N)N)C(=O)N[C@H](Cc1ccc(O)cc1)C(=O)N[C@H](CC(C)C)C(=O)N[C@H](CCCNC(=N)N)C(N)=O)C(C)C [allD FP12-NH2] | – | almost no dye leakage | stability (proteolytic enzyme resistance) (S. aureus): very high stability
CC(C)C[C@H](NC(=O)[C@H](Cc1ccc(O)cc1)NC(=O)[C@H](CCCNC(=N)N)NC(=O)[C@H](CCCNC(=N)N)NC(=O)[C@H](CC(C)C)NC(=O)[C@H](CCCCN)NC(=O)[C@@H](NC(=O)[C@H](CCCNC(=N)N)NC(=O)[C@H](CC(C)C)NC(=O)[C@@H](N)CCCNC(=N)N)C(C)C)C(=O)N[C@@H](CCCNC(=N)N)C(N)=O [FP12-NH2] | – | almost no dye leakage | –
KLRVKLRRWLR [allD FP-13-9w] | strong LPS binding affinity, which is equal to or higher than that of FP1 | – | –
CC(C)C[C@@H](NC(=O)[C@H](N)CCCCN)C(=O)N[C@H](CCCNC(=N)N)C(=O)N[C@@H](C(=O)N[C@H](CCCCN)C(=O)N[C@H](CC(C)C)C(=O)N[C@H](CCCNC(=N)N)C(=O)N[C@H](CCCNC(=N)N)C(=O)N[C@H](Cc1ccc(O)cc1)C(=O)N[C@H](CC(C)C)C(=O)N[C@H](CCCNC(=N)N)C(N)=O)C(C)C [allD FP13-NH2] | – | almost no dye leakage | stability (proteolytic enzyme resistance) (S. aureus): very high stability
KLRVKLRRKLR [allD FP-13-9k] | strong LPS binding affinity, which is equal to or higher than that of FP1 | – | –
melittin | – | – | hemolytic activity (red blood cells): 100%; calcein leakage [3]: responsible for calcein leakage; calcein leakage ([2]; PC/CH (10:1, w/w) liposome mimicking a human red blood cell, 0.25 µM): ~100%
CC(C)C[C@@H](NC(=O)[C@H](N)CCCCN)C(=O)N[C@H](CCCNC(=N)N)C(=O)N[C@@H](C(=O)N[C@H](CCCCN)C(=O)N[C@H](CC(C)C)C(=O)N[C@H](CCCNC(=N)N)C(=O)N[C@H](CCCNC(=N)N)C(=O)N[C@H](Cc1ccc(O)cc1)C(=O)N[C@H](CC(C)C)C(=O)N[C@H](CCCNC(=N)N)C(N)=O)C(C)C [allD FP13-NH2 (AcOH)] | – | – | therapeutic index = LD50/ED50 [4]: greater than 80
CC(C)C[C@H](NC(=O)[C@H](Cc1ccc(O)cc1)NC(=O)[C@H](CCCNC(=N)N)NC(=O)[C@H](CCCNC(=N)N)NC(=O)[C@H](CC(C)C)NC(=O)[C@H](CCCCN)NC(=O)[C@@H](NC(=O)[C@H](CCCNC(=N)N)NC(=O)[C@H](CC(C)C)NC(=O)[C@@H](N)CCCCN)C(C)C)C(=O)N[C@@H](CCCNC(=N)N)C(N)=O [FP13-NH2] | – | almost no dye leakage | –
